Patent US6630484B1 (priority 1996, dated 2003)
“Also recorded” adds a separate entry of the source.

Columns and labels:
[1] = 50 to 550 μg/kg/day continuous i.v. infusion over 5 days, cited from earlier work
[2] = animals; cited from earlier work
[3] = biological target: T1, Golgi α-mannosidase II (Homo sapiens, UniProt Q16706); assay: Inhibition of the glycoprotein processing Golgi α-mannosidase II; assay type: biochemical
T1 sequence (Q16706 1-1144): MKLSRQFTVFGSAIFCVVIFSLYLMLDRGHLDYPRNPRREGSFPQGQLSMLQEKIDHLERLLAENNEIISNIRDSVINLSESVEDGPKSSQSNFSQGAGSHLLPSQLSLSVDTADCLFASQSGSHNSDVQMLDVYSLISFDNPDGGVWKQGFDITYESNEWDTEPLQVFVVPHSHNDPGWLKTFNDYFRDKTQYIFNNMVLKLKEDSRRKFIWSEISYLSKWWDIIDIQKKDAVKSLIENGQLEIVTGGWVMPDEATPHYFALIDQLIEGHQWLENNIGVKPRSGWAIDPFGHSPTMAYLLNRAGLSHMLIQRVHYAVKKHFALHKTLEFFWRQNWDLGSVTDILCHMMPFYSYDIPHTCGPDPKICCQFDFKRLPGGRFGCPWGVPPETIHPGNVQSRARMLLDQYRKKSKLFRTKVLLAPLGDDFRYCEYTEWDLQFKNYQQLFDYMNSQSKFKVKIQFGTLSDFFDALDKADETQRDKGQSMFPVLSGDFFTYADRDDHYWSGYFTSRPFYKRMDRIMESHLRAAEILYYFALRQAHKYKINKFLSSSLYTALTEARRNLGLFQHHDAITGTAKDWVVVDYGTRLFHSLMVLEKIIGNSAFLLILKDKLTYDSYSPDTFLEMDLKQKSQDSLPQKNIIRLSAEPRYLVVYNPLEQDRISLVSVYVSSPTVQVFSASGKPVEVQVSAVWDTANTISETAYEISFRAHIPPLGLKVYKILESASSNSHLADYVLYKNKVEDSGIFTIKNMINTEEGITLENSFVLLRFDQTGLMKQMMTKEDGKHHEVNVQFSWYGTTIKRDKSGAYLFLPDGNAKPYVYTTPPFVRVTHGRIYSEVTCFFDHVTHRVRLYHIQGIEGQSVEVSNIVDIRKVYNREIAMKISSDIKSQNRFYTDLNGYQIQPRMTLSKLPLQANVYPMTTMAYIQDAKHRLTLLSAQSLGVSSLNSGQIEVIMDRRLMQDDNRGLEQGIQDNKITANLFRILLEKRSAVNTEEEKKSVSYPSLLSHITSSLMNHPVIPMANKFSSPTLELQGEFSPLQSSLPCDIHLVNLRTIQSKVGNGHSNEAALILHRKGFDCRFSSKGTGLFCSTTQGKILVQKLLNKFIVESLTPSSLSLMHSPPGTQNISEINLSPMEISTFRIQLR

[4] = biological target: T2, α-mannosidase from jack bean (Canavalia ensiformis, UniProt C0HJB3); assay: Screen for inhibition of α-mannosidase from jack bean; assay type: biochemical; details: for IC50: read-out: Concentration Required for 50% Inhibitions, α-Mannosidase (jack bean)
T2 sequence (C0HJB3 1-981): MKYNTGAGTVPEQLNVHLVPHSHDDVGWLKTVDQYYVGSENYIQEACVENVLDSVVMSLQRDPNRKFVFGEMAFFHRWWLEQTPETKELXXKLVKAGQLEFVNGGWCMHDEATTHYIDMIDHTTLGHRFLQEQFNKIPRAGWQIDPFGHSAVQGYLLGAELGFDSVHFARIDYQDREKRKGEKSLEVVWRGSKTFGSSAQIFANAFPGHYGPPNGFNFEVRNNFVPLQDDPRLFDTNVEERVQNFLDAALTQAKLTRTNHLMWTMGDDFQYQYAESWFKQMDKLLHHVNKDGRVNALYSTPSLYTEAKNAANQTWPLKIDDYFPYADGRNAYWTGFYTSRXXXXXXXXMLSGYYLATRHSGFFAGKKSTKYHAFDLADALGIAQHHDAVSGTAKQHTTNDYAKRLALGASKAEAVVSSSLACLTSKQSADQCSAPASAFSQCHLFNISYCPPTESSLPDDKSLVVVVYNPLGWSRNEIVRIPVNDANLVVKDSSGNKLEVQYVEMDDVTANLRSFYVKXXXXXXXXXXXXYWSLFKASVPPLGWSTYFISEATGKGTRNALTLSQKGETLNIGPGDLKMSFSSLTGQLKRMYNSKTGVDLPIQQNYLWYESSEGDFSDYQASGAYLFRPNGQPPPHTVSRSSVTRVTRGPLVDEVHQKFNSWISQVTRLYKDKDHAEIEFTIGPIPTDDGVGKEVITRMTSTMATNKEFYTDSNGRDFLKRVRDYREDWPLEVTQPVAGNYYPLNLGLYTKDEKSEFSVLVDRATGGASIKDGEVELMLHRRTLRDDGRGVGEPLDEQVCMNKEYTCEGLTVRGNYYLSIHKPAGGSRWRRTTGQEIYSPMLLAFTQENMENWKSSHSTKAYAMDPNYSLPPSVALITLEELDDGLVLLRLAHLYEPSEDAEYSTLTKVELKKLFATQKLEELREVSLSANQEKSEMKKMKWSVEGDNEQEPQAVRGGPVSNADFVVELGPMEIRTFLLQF

[5] = biological target: T3, lysosomal mannosidase (Homo sapiens, UniProt O00754); assay: Selectivity for inhibition of α-mannosidase II vs. lysosomal mannosidase; assay type: biochemical; details: for ratio M/L (smaller is better): ratio of activities of α-Mannosidase II/lysosomal mannosidase
T3 sequence (O00754 50-1011): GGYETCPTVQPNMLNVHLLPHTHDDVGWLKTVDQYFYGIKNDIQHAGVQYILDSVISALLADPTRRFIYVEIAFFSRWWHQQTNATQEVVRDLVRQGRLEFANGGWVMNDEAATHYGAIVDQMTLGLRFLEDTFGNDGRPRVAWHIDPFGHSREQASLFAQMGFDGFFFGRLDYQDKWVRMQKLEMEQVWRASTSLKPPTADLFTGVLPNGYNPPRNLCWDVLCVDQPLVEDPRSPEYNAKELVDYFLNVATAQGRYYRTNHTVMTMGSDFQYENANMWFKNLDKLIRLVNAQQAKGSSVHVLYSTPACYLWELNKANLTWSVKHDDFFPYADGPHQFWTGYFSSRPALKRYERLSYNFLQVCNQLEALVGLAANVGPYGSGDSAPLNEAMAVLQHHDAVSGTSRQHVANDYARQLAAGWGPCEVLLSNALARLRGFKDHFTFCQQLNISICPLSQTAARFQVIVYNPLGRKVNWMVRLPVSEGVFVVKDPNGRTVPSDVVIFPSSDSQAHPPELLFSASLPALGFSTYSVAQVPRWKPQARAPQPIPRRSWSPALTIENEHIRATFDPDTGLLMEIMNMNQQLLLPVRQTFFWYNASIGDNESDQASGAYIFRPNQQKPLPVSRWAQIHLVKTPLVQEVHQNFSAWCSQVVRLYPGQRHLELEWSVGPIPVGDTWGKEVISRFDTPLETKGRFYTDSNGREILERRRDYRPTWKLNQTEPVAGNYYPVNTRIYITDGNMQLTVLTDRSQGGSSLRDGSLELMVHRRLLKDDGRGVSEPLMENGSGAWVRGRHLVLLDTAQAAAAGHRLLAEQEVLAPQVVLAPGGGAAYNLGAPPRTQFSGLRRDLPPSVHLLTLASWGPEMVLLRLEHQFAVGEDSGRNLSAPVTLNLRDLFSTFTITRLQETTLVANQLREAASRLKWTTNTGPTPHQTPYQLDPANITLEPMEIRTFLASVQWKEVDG

Compound	α-mannosidase (jack bean) inhibitory activity (in words) [4]	IC50 [4] [µM]	selectivity for inhibition of α-mannosidase II over lysosomal mannosidase (in words) [5]	ratio M/L (smaller is better) [5]	other results
O[C@H]1[C@H]2[C@H](O)CCCN2C[C@H]1O [Compound 1, swainsonine]	–	–	–	–	toxicity observed in patients ([1]; repeated at 28 day intervals): Moderate toxicity; Serum half-life ([1]; patients with advanced malignancies): 12 h; preclinical toxicity [2]: low preclinical toxicity; inhibition of α-mannosidase II (in words) [3]: potent inhibitor
CC[C@H]1C[C@@H](O)[C@@H]2[C@H](O)[C@H](O)CN2C1 [Compound 24, (1S,2R,6S,8R,8aR)-6-Ethyl-1,2,8-trihydroxyindolizidine]	highest degree of inhibitory activity	30	increased selectivity	0.2	–
O[C@H]1[C@H]2[C@H](O)C[C@H](CCOCc3ccccc3)CN2C[C@H]1O [Compound 25, (1S,2R,6S,8R,8aR)-6-[2-(Benzyloxy)ethyl]-1,2,8-trihydroxyindolizidine]	slight decrease in inhibitory activity	70	increased selectivity	0.33	–
CC[C@@H]1C[C@@H](O)[C@@H]2[C@H](O)[C@H](O)CN2C1 [Compound 26, (1S,2R,6R,8R,8aR)-6-Ethyl-1,2,8-trihydroxyindolizidine]	highest degree of inhibitory activity; also recorded: significant decrease in activity	230	increased selectivity	0.47	–
O[C@H]1[C@H]2[C@H](O)C[C@@H](CCOCc3ccccc3)CN2C[C@H]1O [Compound 27, (1S,2R,6R,8R,8aR)-6-[2-(Benzyloxy)ethyl]-1,2,8-trihydroxyindolizidine]	significant decrease in activity	275	–	–	–
CCCC[C@@H]1CCN2C[C@@H](O)[C@@H](O)[C@H]2[C@@H]1O [Compound 52, (1S,2R,7R,8R,8aR)-7-Butyl-1,2,8-trihydroxyindolizidine]	–	> 1000	increased selectivity	0.02	melting point: 156 °C; selectivity for inhibition of α-mannosidase II over lysosomal mannosidase [5]: 50 fold
O[C@@H]1[C@H](CCOCc2ccccc2)CCN2C[C@@H](O)[C@@H](O)[C@@H]12 [Compound 53, (1S,2R,7S,8R,8aR)-7-[2-(Benzyloxy)ethyl]-1,2,8-trihydroxyindolizidine]	weak inhibitor	890	–	–	–
CCCC[C@@H]1CCN2CC3OC(C)(C)O[C@H]3[C@@H]2[C@H]1O (stereo partly drawn) [Compound 54, (1S,2R,7R,8S,8aS)-7-Butyl-8-hydroxy-1,2-O-isopropylidenedioxyindolizidine]	–	> 1000	–	–	–
CC1(C)OC2CN3CC[C@@H](CCOCc4ccccc4)[C@H](O)[C@H]3[C@@H]2O1 (stereo partly drawn) [Compound 55, (1S,2R,7R,8S,8aS)-7-[2-(Benzyloxy)ethyl]-8-hydroyx-1,2-O-isopropylidenedioxyindolizidine]	–	> 1000	–	–	–
CCCC[C@@H]1CCN2C[C@@H](O)[C@@H](O)[C@@H]2[C@H]1O [Compound 56, (1S,2R,7R,8S,8aS)-7-Butyl-1,2,8-trihydroxyindolizidine]	–	> 1000	–	–	–
O[C@H]1[C@H](CCOCc2ccccc2)CCN2C[C@@H](O)[C@@H](O)[C@H]12 [Compound 57, (1S,2R,7S,8S,8aS)-7-[2-(Benzyloxy)ethyl]-1,2,8-trihydroxyindolizidine]	–	> 1000	–	–	–
CCCC[C@H]1CCN2C[C@@H](O)[C@@H](O)[C@@H]2[C@H]1O [Compound 77, (1S,2R,7S,8S,8aS)-7-Butyl-1,2,8-trihydroxyindolizidine]	–	> 1000	–	–	–
O[C@H]1[C@@H](CCOCc2ccccc2)CCN2C[C@@H](O)[C@@H](O)[C@H]12 [Compound 78, (1S,2R,7R,8S,8aS)-7-[2-(Benzyloxy)ethyl]-1,2,8-trihydroxyindolizidine]	–	> 1000	–	–	–
